Assay results published in ChEMBL document CHEMBL4339189, “Dissymmetric pyridyl-substituted 3,5-bis(arylidene)-4-piperidones as anti-hepatoma agents by inhibiting NF-κB pathway activation” (Eur J Med Chem, 2019).
Calls of active or inactive are those of the source. The calls are words filed in the database; no cut-off is given here.

Experiments:
HepG2 [1] = experiment: Cytotoxicity against human HepG2 cells assessed as reduction in cell viability incubated for 24 hrs by MTT assay; format: functional, cell-based
QGY-7703 = experiment: Cytotoxicity against human QGY7703 cells assessed as reduction in cell viability incubated for 24 hrs by MTT assay; format: functional, cell-based
SMMC-7721 = experiment: Cytotoxicity against human SMMC7721 cells assessed as reduction in cell viability incubated for 24 hrs by MTT assay; format: functional, cell-based
[2] = Cytotoxicity against human HHL5 cells assessed as reduction in cell viability incubated for 24 hrs by MTT assay; format: cell-based; conditions: HHL-5, 24 h
HepG2 [3] = experiment: Antitumor activity against human HepG2 cells xenografted in Balb/c nude mouse assessed as tumor volume level at 10 mg/kg, ip administered every 2 days for 20 days and measured every 2 days; format: functional
HepG2 [4] = experiment: Antitumor activity against human HepG2 cells xenografted in Balb/c nude mouse assessed as induction of incomplete cells at 10 mg/kg, ip administered every 2 days for 20 days and measured every 2 days by H and E staining based assay; format: functional, organism-based
HepG2 [5] = experiment: Antitumor activity against human HepG2 cells xenografted in Balb/c nude mouse assessed as induction of wrinkled abnormalities on cell morphology at 10 mg/kg, ip administered every 2 days for 20 days and measured every 2 days by H and E staining based assay; format: functional, organism-based
HepG2 [6] = experiment: Induction of apoptosis in human HepG2 cells xenografted in Balb/c nude mouse assessed as reduction in Bcl-2 protein expression at 10 mg/kg, ip administered every 2 days for 20 days and measured every 2 days by immunohistochemistry; format: functional, organism-based
Mus musculus = experiment: Antiinflammatory activity in human HepG2 cells xenografted Balb/c nude mouse assessed as reduction in TNFalpha protein expression at 10 mg/kg, ip administered every 2 days for 20 days and measured every 2 days by immunohistochemistry; format: functional, organism-based

SMILES: COc1cccc2c1C(=O)c1c(O)c3c(c(O)c1C2=O)C[C@@](O)(C(=O)CO)C[C@@H]3O[C@H]1C[C@H](N)[C@H](O)[C@H](C)O1 [DOXORUBICIN]
- Activity (HepG2 [1]): Dose-dependent effect
- Activity (QGY-7703): Dose-dependent effect
- IC50 (QGY-7703; QGY-7703, 24 h): 1370 nM
- Activity (SMMC-7721): Dose-dependent effect
- IC50 (SMMC-7721; SMMC-7721, 24 h): 2750 nM
- IC50 [2]: 12.2 µM
- Activity (HepG2 [3]): <200 mm3
- Activity (HepG2 [4]): Active
- Activity (HepG2 [5]): Active
- Activity (HepG2 [6]): Active
- Activity (Mus musculus): Active
